Where two headings read alike, the source gives them in different places.
How the values were obtained:
[1] = target: recombinant SARS-CoV-2 Main protease (Mpro) (Severe acute respiratory syndrome coronavirus 2 (2019-nCoV) (SARS-CoV-2), UniProt P0DTD1); experiment: Cov Mpro Biochemical IC50 Assay; settings: read-out: MPro IC50
SARS-CoV-2-NLuc = experiment: microbe, parasite or virus in culture; type: cell-based, SARS Coronavirus 2
[2] = recombinant SARS-CoV-2 Mpro 7.5 nM, fluorogenic peptide substrate 40 μM
[3] = Severe acute respiratory syndrome coronavirus, 48 h, read-out: MPro EC50
[4] = recombinant SARS-CoV-2 Mpro, fluorogenic peptide substrate
[5] = Severe acute respiratory syndrome coronavirus, 48 h; read-out: MPro EC50

Structure (SMILES)	IC50 [1, 2]	EC50 (SARS-CoV-2-NLuc; read-out: MPro EC50)	EC50 (SARS-CoV-2-NLuc; [3])	IC50 [1, 4]	EC50 (SARS-CoV-2-NLuc; [5])
Cn1ncc2cncc(-n3c(=O)c4sc(-c5ccccc5C#N)cc4n(CCC#N)c3=O)c21 (single isomer, unassigned) [Example 961, 2-(1-(2-cyanoethyl)-3-(1-methyl-1H-pyrazolo[4,3-c]pyridin-7-yl)-2,4-dioxo-1,2,3,4-tetrahydrothieno[3,2-d]pyrimidin-6-yl)benzonitrile]	6.18 nM	19.6 nM	–	–	–
COc1ccc(Cl)c(-c2ccc3c(=O)n(-c4cncc5c4CCCO5)c(=O)[nH]c3c2)c1 [Example 597]	160 nM	–	205 nM	–	–
COc1cc(-c2cc3c(s2)c(=O)n(-c2cnccc2C)c(=O)n3CCC#N)c(Cl)cc1F (single isomer, unassigned) [Example 1031, 3-[6-(2-chloro-4-fluoro-5-methoxy-phenyl)-3-(4-methyl-3-pyridyl)-2,4-dioxo-thieno[3,2-d]pyrimidin-1-yl]propanenitrile]	45.6 nM	75.3 nM	–	–	–
COc1cc(-c2cc3[nH]c(=O)n(-c4cncc5cc(C(=O)N6CCOCC6)sc45)c(=O)c3s2)c(Cl)cc1F [Example 649]	7.91 nM	–	195 nM	–	–
Cc1cc(-c2cccc(Cl)c2-c2ccc3c(=O)n(-c4cncc5ccccc45)c(=O)[nH]c3c2)cn2nnnc12 [Example 245]	–	–	20.4 nM	13.2 nM	–
O=c1[nH]c2cc(-c3ccccc3Cl)sc2c(=O)n1-c1cncc2ccccc12 (single isomer, unassigned) [Example 151, 6-(2-chlorophenyl)-3-(isoquinolin-4-yl)thieno[3,2-d]pyrimidine-2,4(1H,3H)-dione]	–	1.73 nM	–	< 2.54 nM	–
COc1cc(-c2cc3c(s2)c(=O)n(-c2cncc(C#N)c2C)c(=O)n3CCC#N)c(Cl)cc1F [Example 868]	9.86 nM	–	26.1 nM	–	–
COc1cc(-c2cc3[nH]c(=O)n(-c4cncc5sc(C#N)c(C)c45)c(=O)c3s2)c(Cl)cc1F [Example 1051]	6.82 nM	–	5.16 nM	–	–
N#CCCn1c(=O)n(-c2cncc3ccccc23)c(=O)c2sc(-c3ccccc3C#N)cc21 (single isomer, unassigned) [Example 964, 2-(1-(2-cyanoethyl)-3-(isoquinolin-4-yl)-2,4-dioxo-1,2,3,4-tetrahydrothieno[3,2-d]pyrimidin-6-yl)benzonitrile]	62.5 nM	87 nM	–	–	–
COc1cc(-c2cc3[nH]c(=O)n(-c4cncc5cnn(C)c45)c(=O)c3s2)c(Cl)cc1F [Example 505, 6-(2-chloro-4-fluoro-5-methoxyphenyl)-3-(1-methyl-1H-pyrazolo[4,3-c]pyridin-7-yl)thieno[3,2-d]pyrimidine-2,4(1H,3H)-dione]	5.45 nM	–	9.97 nM	–	–
N#Cc1ccc(-c2ccc3c(=O)n(-c4cncc5ccccc45)c(=O)[nH]c3c2)cc1 [Example 35]	–	–	> 50000 nM	> 100000 nM	–
Cc1ccncc1-n1c(=O)[nH]c2cc(-c3ccccc3Cl)sc2c1=O [Example 216]	–	–	112 nM	62.3 nM	–
COc1ccc(-c2cc(C)c3ncnn3c2)c(-c2ccc3c(=O)n(-c4cncc5ccccc45)c(=O)[nH]c3c2)c1 [Example 568, 3-(4-isoquinolyl)-7-[5-methoxy-2-(8-methyl-[1,2,4]triazolo[1,5-a]pyridin-6-yl)phenyl]-1H-quinazoline-2,4-dione]	5670 nM	–	2640 nM	–	–
COc1cc(-c2cc3c(s2)c(=O)n(-c2cncc(C#CC(C)(C)S(C)(=O)=O)c2)c(=O)n3CCC#N)c(Cl)cc1F [Example 1039]	11.7 nM	–	57.1 nM	–	–
COc1ccc(Cl)c(-c2cc3[nH]c(=O)n(-c4cncc5ccc(N6CCOCC6)cc45)c(=O)c3s2)c1 [Example 432]	6.99 nM	–	–	–	6.37 nM
O=c1[nH]c2cc(-c3c(Cl)cccc3C3=CCOCC3)sc2c(=O)n1-c1cncc2ccccc12 [Example 522]	9.84 nM	–	5.1 nM	–	–
COc1cc(-c2cc3[nH]c(=O)n(-c4cncc5cccc(Cl)c45)c(=O)c3s2)c(Cl)cc1F [Example 1074]	4.32 nM	5.89 nM	–	–	–
COc1ccc(Cl)c(-c2cc3[nH]c(=O)n(-c4cncc5c4cnn5CC(F)(F)F)c(=O)c3s2)c1 [Example 499]	1920 nM	–	6950 nM	–	–
O=c1c2sc(-c3ncco3)cc2n(CC2CCCC2)c(=O)n1-c1cncc2ccccc12 [Example 170, 1-(cyclopentylmethyl)-3-(isoquinolin-4-yl)-6-(oxazol-2-yl)thieno[3,2-d]pyrimidine-2,4(1H,3H)-dione]	–	–	421 nM	192 nM	–
COc1cc(-c2cc3[nH]c(=O)n(-c4cncc5ccccc45)c(=O)c3cc2F)c(C#N)cc1F [Example 202, 5-fluoro-2-[6-fluoro-3-(4-isoquinolyl)-2,4-dioxo-1H-quinazolin-7-yl]-4-methoxy-benzonitrile]	–	–	18.4 nM	13.6 nM	–

Structure (SMILES)	IC50 [1, 2]	EC50 (SARS-CoV-2-NLuc; read-out: MPro EC50)	EC50 (SARS-CoV-2-NLuc; [3])	IC50 [1, 4]	EC50 (SARS-CoV-2-NLuc; [5])
COc1cc(-c2cc3[nH]c(=O)n(-c4cncc5ccn(C)c45)c(=O)c3s2)c(Cl)cc1F (single isomer, unassigned) [Example 957, 6-(2-chloro-4-fluoro-5-methoxyphenyl)-3-(1-methyl-1H-pyrrolo[3,2-c]pyridin-7-yl)thieno[3,2-d]pyrimidine-2,4(1H,3H)-dione]	2.22 nM	2.65 nM	–	–	–
Cn1cnc(Cn2c(=O)n(-c3cncc(C4CC4)c3)c(=O)c3sc(-c4ccccc4Cl)cc32)n1 [Example 621]	495 nM	–	710 nM	–	–
COc1cc(-c2cc3[nH]c(=O)n(-c4cncc5cccnc45)c(=O)c3s2)c(Cl)cc1F [Example 553, 6-(2-chloro-4-fluoro-5-methoxy-phenyl)-3-(1,6-naphthyridin-8-yl)-1H-thieno[3,2-d]pyrimidine-2,4-dione]	7.58 nM	–	12 nM	–	–
Cc1cncc(-n2c(=O)c3sc(-c4ccccc4C#N)cc3n(CC3(C#N)CC3)c2=O)c1 [Example 802]	3.02 nM	–	–	–	7.09 nM
Cc1ncc(-c2cccc(Cl)c2-c2ccc3c(=O)n(-c4cncc5ccccc45)c(=O)[nH]c3c2)n1C [Example 352]	–	–	120 nM	41.8 nM	–
COc1cc(-c2cc3c(s2)c(=O)n(-c2cncc4cnn(C)c24)c(=O)n3CCC#N)c(C)cc1Cl [Example 1018]	15 nM	–	19.2 nM	–	–
COc1cc(-c2cc3c(s2)c(=O)n(-c2cncc4ccccc24)c(=O)n3Cc2cc(F)c(F)c(F)c2)c(Cl)cc1F [Example 1099, 6-(2-chloro-4-fluoro-5-methoxy-phenyl)-3-(4-isoquinolyl)-1-[(3,4,5-trifluorophenyl)methyl]thieno[3,2-d]pyrimidine-2,4-dione]	388 nM	–	–	–	921 nM
Cc1cccc(-c2ccccc2)c1-c1ccc2c(=O)n(-c3cncc4ccccc34)c(=O)[nH]c2c1 [Example 97]	–	–	266 nM	397 nM	–
Cc1csc2cncc(-n3c(=O)[nH]c4cc(-c5c(Cl)cccc5-c5cncc(C#N)c5)sc4c3=O)c12 [Example 674]	3.85 nM	–	2.82 nM	–	–
O=c1[nH]c2cc(-c3c(Cl)cccc3Cl)sc2c(=O)n1-c1cncc2ccccc12 [Example 110, 6-(2,6-dichlorophenyl)-3-(isoquinolin-4-yl)thieno[3,2-d]pyrimidine-2,4(1H,3H)-dione]	–	–	–	372 nM	275 nM
Cc1nccnc1COc1cccc(Cl)c1-c1ccc2c(=O)n(-c3cncc4ccccc34)c(=O)[nH]c2c1 [Example 94]	–	–	269 nM	210 nM	–
N#Cc1ccccc1-c1cnc2c(=O)n(-c3cncc4ccccc34)c(=O)[nH]c2c1 [Example 69]	–	–	4210 nM	53.1 nM	–
CC(C)Oc1ccc(Cl)c(-c2cc3[nH]c(=O)n(-c4cncc5ccccc45)c(=O)c3s2)c1 [Example 346]	–	–	239 nM	73.5 nM	–
COc1ccc(C#N)c(-c2ccc3c(=O)n(-c4cncc5cccnc45)c(=O)[nH]c3c2)c1 [Example 218]	–	–	–	20.9 nM	82.8 nM
Cn1cncc1-c1cccc(Cl)c1-c1cc2[nH]c(=O)n(-c3cncc4ccccc34)c(=O)c2s1 [Example 525]	10.4 nM	–	81.2 nM	–	–
Cn1nc(-c2cccc(Cl)c2-c2ccc3c(=O)n(-c4cncc5ccccc45)c(=O)[nH]c3c2)c2ccccc21 [Example 263]	–	–	38.1 nM	88.5 nM	–
COc1ccc(Cl)c(-c2cc3[nH]c(=O)n(-c4cncc5ccc(N6CCC(F)(F)C6)cc45)c(=O)c3s2)c1 [Example 414]	7.63 nM	–	20.1 nM	–	–
Cn1ncc2cncc(-n3c(=O)[nH]c4cc(-c5ccc(F)cc5Cl)sc4c3=O)c21 [Example 662]	40.5 nM	–	81.7 nM	–	–
O=c1[nH]c2cc(-c3c(Cl)cccc3-c3ccc4c(c3)OC(F)(F)O4)ccc2c(=O)n1-c1cncc2ccccc12 [Example 357]	–	–	68.1 nM	373 nM	–
N#CCn1c(=O)n(-c2cncc3ccccc23)c(=O)c2sc(-c3c(Cl)cccc3-c3cncc(C#N)c3)cc21 [Example 681]	4.49 nM	–	11.1 nM	–	–
